Reference: patent publication US11945822B2, “Pyrazolo-triazine and/or pyrazolo-pxrimidine derivatives as selective inhibitor of cyclin dependent kinase” (QURIENT CO., LTD., priority 2018, dated 2024)

How the values were obtained:
Assay in all cases: In vitro IC50 profile for CDKs family kinase (33PanQinase radiometric assay)
Assay type in all cases: biochemical
Conditions in all cases: CDK7 selectivity profile in CDKs family
CDK1/CycB1 = target: T1, CDK1/CycB1 (Homo sapiens, UniProt P06493)
T1 construct: purchased ProQinase GmbH
Experimental: (§1) In Vitro IC50 Profile for CDK7 Inhibitor Among 28 CDKs Family Kinases.
(§2) The IC50 profile of compounds were determined using 28 CDKs family protein kinases through ProQinase GmbH (Freiburg, Germany). All the protocol and materials had been provided by ProQinase GmbH. Briefly, in the process, 90 μl H2O were added to each well of a compound dilution plate. To minimize potential precipitation, the H2O was added to the plate only a few minutes before the transfer of the compound solutions into the assay plates. The plate was shaken thoroughly, resulting in a “compound dilution plate/10% DMSO”. The compound dilution plate(s) were discarded at the end of the working day. For the assays (see below), 5 μl solution from each well of the compound dilution plate were transferred into the assay plates. The final volume of the assay was 50 μl. All compounds were tested at 10 final assay concentrations in the range from 1×10^−05 M to 3×10^−10 M. The final DMSO concentration in the reaction cocktails was 1% in all cases. All protein kinases provided by ProQinase were expressed in Sf9 insect cells or in E. coli as recombinant GST-fusion proteins or His-tagged proteins, either as full-length or enzymatically active fragments. All kinases were produced from human cDNAs and purified by either GSH affinity chromatography or immobilized metal affinity chromatography. The purity of the protein kinases was examined by SDS-PAGE/Coomassie staining, the identity was checked by mass spectroscopy. Kinases from external vendors, Carna Biosciences Inc.; Invitrogen Corp.; and Millipore Corp., were expressed, purified and quality-controlled by virtue of the vendors readings. A radiometric protein kinase assay (^33PanQinase® Activity Assay) was used for measuring the kinase activity of the 28 protein kinases. All kinase assays were performed in 96-well FlashPlates™ from PerkinElmer (Boston, MA, USA) in a 50 μl reaction volume. The reaction cocktails were incubated at 30° C. for 60 minutes. The reaction was stopped with 50 μl of 2% (v/v) H3PO4, plates were aspirated and washed two times with 200 μl 0.9% (w/v) NaCl. Incorporation of ^33Pi was determined with a microplate scintillation counter (Microbeta, Wallac). All assays were performed with a BeckmanCoulter/SAGIAN™ Core System. As part of the data evaluation the low control value from a particular plate was subtracted from the high control value as well as from all 80 “compound values” of the corresponding plate. The residual activity (in %) for each well of a particular plate was calculated by using the following formula: Res. Activity (%)=100×[(cpm of compound−low control)/(high control−low control)]. Results are represented in table (table 10).

CDK3/CycE1 = target: T2, CDK3/CycE1 (Homo sapiens, UniProt Q00526)
T2 construct: purchased ProQinase GmbH
Experimental: as §1, §2

CDK6/CycD3 = target: T3, CDK6/CycD3 (Homo sapiens, UniProt Q00534)
T3 construct: purchased ProQinase GmbH
Experimental: as §1, §2

CDK9/CycT1 = target: T4, CDK9/CycT1 (Homo sapiens, UniProt P50750)
T4 construct: purchased ProQinase GmbH
Experimental: as §1, §2

CDK5/p25NCK = target: T5, CDK5/p25NCK (Homo sapiens, UniProt Q00535)
T5 construct: purchased ProQinase GmbH
Experimental: as §1, §2

CDK12 R722C/CycK = target: T6, CDK12 R722C/CycK (Homo sapiens, UniProt Q9NYV4, R722C)
T6 construct: either as full-length or enzymatically active fragments; purchased ProQinase GmbH (Freiburg, Germany)
Experimental: as §1, §2

CDK16/CycY = target: T7, CDK16/CycY (Homo sapiens, UniProt Q00536)
T7 construct: either as full-length or enzymatically active fragments; purchased ProQinase GmbH (Freiburg, Germany)
Experimental: as §1, §2

CDK3/CycC = target: T8, CDK3/CycC (Homo sapiens, UniProt Q00526)
T8 construct: purchased ProQinase GmbH
Experimental: as §1, §2

CDK4/CycD2 = target: T9, CDK4/CycD2 (Homo sapiens, UniProt P11802)
T9 construct: purchased ProQinase GmbH
Experimental: as §1, §2

CDK7/CycH/MAT1 = target: T10, CDK7/CycH/MAT1 (Homo sapiens, UniProt P50613)
T10 construct: purchased ProQinase GmbH
Experimental: as §1, §2

CDK19/CycC = target: T11, CDK19/CycC (Homo sapiens, UniProt Q9BWU1)
T11 construct: either as full-length or enzymatically active fragments; purchased ProQinase GmbH (Freiburg, Germany)
Experimental: as §1, §2

CDK1/CycE1 = target: T12, CDK1/CycE1 (Homo sapiens, UniProt P06493)
T12 construct: purchased ProQinase GmbH
Experimental: as §1, §2

CDK4/CycD3 = target: T13, CDK4/CycD3 (Homo sapiens, UniProt P11802)
T13 construct: purchased ProQinase GmbH
Experimental: as §1, §2

CDK20/CycT1 = target: T14, CDK20/CycT1 (Homo sapiens, UniProt Q8IZL9)
T14 construct: either as full-length or enzymatically active fragments; purchased ProQinase GmbH (Freiburg, Germany)
Experimental: as §1, §2

CDK6/CycD2 = target: T15, CDK6/CycD2 (Homo sapiens, UniProt Q00534)
T15 construct: purchased ProQinase GmbH
Experimental: as §1, §2

CDK2/CycD1 = target: T16, CDK2/CycD1 (Homo sapiens, UniProt P24941)
T16 construct: purchased ProQinase GmbH
Experimental: as §1, §2

CDK17/p35NCK = target: T17, CDK17/p35NCK (Homo sapiens, UniProt Q00537)
T17 construct: either as full-length or enzymatically active fragments; purchased ProQinase GmbH (Freiburg, Germany)
Experimental: as §1, §2

CDK9/CycK = target: T18, CDK9/CycK (Homo sapiens, UniProt P50750)
T18 construct: purchased ProQinase GmbH
Experimental: as §1, §2

CDK2/CycA2 = target: T19, CDK2/CycA2 (Homo sapiens, UniProt P24941)
T19 construct: purchased ProQinase GmbH
Experimental: as §1, §2

CDK6/CycD1 = target: T20, CDK6/CycD1 (Homo sapiens, UniProt Q00534)
T20 construct: purchased ProQinase GmbH
Experimental: as §1, §2

CDK20/CycH = target: T21, CDK20/CycH (Homo sapiens, UniProt Q8IZL9)
T21 construct: either as full-length or enzymatically active fragments; purchased ProQinase GmbH (Freiburg, Germany)
Experimental: as §1, §2

CDK2/CycE1 = target: T22, CDK2/CycE1 (Homo sapiens, UniProt P24941)
T22 construct: purchased ProQinase GmbH
Experimental: as §1, §2

CDK8/CycC = target: T23, CDK8/CycC (Homo sapiens, UniProt P49336)
T23 construct: purchased ProQinase GmbH
Experimental: as §1, §2

CDK5/p35NCK = target: T24, CDK5/p35NCK (Homo sapiens, UniProt Q00535)
T24 construct: purchased ProQinase GmbH
Experimental: as §1, §2

CDK1/CycA2 = target: T25, CDK1/CycA2 (Homo sapiens, UniProt P06493)
T25 construct: purchased ProQinase GmbH
Experimental: as §1, §2

T6 sequence (Q9NYV4 whole entry R722C, the tested form may be a part): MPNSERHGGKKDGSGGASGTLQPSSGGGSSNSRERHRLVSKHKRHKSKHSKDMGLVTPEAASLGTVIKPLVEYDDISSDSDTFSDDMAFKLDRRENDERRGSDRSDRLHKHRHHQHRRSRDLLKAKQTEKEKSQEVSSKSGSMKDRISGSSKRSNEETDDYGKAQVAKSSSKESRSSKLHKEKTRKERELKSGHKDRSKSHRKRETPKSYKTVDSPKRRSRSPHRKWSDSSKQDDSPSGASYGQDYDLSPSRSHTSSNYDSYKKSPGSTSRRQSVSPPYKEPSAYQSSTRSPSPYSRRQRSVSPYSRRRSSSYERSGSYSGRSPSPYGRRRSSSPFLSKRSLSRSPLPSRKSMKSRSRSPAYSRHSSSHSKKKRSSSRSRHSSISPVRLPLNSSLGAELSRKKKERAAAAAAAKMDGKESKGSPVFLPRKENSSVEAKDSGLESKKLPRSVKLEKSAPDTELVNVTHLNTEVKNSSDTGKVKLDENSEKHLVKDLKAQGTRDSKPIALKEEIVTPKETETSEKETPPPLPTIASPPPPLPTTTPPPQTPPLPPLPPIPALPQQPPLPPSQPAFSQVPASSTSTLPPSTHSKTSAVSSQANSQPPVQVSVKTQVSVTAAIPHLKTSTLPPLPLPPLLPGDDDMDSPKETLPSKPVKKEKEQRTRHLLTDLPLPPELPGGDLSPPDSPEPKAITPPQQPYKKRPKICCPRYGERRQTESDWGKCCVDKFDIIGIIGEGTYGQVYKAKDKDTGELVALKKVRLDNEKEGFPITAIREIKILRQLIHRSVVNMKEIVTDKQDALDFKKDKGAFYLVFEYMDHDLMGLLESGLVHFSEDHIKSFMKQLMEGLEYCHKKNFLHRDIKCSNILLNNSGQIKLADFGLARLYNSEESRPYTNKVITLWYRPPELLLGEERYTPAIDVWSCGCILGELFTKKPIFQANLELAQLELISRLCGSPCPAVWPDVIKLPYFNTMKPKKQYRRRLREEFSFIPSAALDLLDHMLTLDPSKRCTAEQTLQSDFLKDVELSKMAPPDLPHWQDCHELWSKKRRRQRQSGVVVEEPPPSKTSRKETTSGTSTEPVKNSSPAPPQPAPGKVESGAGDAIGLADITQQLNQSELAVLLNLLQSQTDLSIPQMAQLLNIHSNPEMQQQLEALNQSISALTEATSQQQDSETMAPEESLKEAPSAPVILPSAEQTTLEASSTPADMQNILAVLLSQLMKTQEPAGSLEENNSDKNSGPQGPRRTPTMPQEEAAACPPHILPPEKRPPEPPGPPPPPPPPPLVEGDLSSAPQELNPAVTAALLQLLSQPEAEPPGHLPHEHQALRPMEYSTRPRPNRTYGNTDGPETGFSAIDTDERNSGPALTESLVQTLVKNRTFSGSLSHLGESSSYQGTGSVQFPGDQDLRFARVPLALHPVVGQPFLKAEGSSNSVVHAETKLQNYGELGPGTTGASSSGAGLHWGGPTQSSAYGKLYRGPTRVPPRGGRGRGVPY
T6 sequence (O75909 whole entry partner, the tested form may be a part): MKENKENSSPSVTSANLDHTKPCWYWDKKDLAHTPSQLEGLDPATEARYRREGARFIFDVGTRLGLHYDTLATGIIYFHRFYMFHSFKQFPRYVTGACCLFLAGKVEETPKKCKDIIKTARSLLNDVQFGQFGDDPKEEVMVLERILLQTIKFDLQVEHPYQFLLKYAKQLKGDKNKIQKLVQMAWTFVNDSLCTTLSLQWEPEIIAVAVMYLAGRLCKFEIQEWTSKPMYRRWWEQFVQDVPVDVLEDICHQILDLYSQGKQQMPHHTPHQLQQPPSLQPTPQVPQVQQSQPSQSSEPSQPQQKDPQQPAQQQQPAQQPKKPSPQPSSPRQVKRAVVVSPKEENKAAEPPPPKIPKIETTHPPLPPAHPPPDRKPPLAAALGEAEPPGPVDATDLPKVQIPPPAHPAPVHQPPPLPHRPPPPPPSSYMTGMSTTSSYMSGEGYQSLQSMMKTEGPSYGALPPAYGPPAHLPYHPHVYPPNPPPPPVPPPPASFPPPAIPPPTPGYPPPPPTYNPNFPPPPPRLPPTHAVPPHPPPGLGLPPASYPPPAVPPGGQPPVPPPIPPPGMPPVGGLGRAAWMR
T23 sequence (P49336 whole entry): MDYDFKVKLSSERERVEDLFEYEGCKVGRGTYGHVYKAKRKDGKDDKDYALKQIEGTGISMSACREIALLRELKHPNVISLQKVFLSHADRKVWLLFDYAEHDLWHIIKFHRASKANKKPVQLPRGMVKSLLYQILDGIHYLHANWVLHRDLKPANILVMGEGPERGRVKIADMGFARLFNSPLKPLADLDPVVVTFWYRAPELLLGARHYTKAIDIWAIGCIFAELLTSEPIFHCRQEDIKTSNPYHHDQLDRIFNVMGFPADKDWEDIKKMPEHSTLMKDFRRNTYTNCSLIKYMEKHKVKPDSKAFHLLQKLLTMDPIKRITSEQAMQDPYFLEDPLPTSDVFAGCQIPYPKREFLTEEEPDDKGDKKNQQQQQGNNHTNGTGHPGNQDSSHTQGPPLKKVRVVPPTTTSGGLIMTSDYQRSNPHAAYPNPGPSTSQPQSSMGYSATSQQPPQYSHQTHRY
T23 sequence (P24863 whole entry partner): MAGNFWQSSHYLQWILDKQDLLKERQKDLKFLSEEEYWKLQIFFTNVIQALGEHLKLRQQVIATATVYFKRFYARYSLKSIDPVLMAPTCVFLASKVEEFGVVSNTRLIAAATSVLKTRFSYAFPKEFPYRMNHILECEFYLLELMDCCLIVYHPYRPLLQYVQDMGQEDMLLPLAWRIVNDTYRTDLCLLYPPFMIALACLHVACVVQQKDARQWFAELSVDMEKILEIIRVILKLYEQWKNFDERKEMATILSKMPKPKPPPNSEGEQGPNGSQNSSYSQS
T21 sequence (Q8IZL9 whole entry, the tested form may be a part): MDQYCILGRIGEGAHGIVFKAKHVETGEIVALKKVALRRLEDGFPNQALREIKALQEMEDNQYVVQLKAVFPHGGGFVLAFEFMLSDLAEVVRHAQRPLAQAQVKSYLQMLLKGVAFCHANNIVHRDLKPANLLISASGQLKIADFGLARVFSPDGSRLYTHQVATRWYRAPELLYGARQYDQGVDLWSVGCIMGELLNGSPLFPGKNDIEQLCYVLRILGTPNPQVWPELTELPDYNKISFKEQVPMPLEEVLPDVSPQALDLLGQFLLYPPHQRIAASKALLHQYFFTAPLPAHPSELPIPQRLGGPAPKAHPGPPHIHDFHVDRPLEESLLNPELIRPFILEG
T21 sequence (P51946 whole entry partner, the tested form may be a part): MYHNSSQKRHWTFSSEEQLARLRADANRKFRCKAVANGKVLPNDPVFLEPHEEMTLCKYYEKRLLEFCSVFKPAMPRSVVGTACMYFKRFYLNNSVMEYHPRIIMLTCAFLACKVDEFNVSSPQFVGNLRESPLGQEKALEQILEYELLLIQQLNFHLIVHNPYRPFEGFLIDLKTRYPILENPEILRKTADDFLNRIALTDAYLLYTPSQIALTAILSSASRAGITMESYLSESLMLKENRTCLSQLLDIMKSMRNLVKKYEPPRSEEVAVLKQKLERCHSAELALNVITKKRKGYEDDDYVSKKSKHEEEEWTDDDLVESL
T14 sequence (Q8IZL9 whole entry, the tested form may be a part): as the sequence (Q8IZL9 whole entry, the tested form may be a part) above
T14 sequence (O60563 whole entry partner, the tested form may be a part): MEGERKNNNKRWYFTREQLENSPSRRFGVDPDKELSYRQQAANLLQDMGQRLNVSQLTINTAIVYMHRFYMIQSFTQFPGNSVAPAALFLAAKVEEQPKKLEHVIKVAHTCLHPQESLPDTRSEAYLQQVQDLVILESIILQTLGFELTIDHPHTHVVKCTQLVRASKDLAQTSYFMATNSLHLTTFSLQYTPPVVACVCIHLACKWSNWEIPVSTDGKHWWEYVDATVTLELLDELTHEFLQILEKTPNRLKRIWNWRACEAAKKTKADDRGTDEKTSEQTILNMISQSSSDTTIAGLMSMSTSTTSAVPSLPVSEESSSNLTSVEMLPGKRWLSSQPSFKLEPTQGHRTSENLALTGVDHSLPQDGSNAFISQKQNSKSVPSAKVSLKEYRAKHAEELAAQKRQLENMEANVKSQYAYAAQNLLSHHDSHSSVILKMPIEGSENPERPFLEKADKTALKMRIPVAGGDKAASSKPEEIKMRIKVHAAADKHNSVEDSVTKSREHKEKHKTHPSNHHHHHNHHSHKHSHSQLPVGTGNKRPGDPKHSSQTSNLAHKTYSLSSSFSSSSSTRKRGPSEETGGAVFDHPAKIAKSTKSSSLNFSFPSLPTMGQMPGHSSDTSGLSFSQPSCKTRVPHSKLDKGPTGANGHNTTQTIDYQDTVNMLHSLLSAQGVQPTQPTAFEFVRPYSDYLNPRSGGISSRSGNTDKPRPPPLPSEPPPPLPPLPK
T4 sequence (P50750 whole entry): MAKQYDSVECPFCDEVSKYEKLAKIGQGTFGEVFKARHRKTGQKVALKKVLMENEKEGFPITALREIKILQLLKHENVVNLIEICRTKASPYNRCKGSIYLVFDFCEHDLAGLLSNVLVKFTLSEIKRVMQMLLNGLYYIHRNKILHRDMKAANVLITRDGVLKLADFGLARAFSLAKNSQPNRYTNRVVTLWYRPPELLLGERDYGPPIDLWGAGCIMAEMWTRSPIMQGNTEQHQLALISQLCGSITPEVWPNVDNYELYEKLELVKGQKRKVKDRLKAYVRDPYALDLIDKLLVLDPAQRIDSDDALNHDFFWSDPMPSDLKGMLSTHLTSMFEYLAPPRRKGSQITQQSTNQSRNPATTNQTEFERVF
T4 sequence (O60563 whole entry partner): as the sequence (O60563 whole entry partner, the tested form may be a part) above
T18 sequence (P50750 whole entry): as the sequence (P50750 whole entry) above
T18 sequence (O75909 whole entry partner): as the sequence (O75909 whole entry partner, the tested form may be a part) above

CC(C)c1cnn2c(NCc3c(Cl)cccc3-n3ccc(C(C)(C)O)n3)nc(N3CCC(N)CC3)nc12 [Compound 210]
IC50 (CDK1/CycB1): > 10 µM | IC50 (CDK3/CycE1): > 10 µM | IC50 (CDK6/CycD3): > 10 µM | IC50 (CDK9/CycT1): > 10 µM | IC50 (CDK5/p25NCK): > 10 µM | IC50 (CDK12 R722C/CycK): > 10 µM | IC50 (CDK16/CycY): 3.96 µM | IC50 (CDK3/CycC): > 10 µM | IC50 (CDK4/CycD2): > 10 µM | IC50 (CDK7/CycH/MAT1): 0.015 µM | IC50 (CDK19/CycC): > 10 µM | IC50 (CDK1/CycE1): > 10 µM | IC50 (CDK4/CycD3): > 10 µM | IC50 (CDK20/CycT1): > 10 µM | IC50 (CDK6/CycD2): > 10 µM | IC50 (CDK2/CycD1): > 10 µM | IC50 (CDK17/p35NCK): > 10 µM | IC50 (CDK9/CycK): > 10 µM | IC50 (CDK2/CycA2): 3.61 µM | IC50 (CDK6/CycD1): > 10 µM | IC50 (CDK20/CycH): > 10 µM | IC50 (CDK2/CycE1): 3.48 µM | IC50 (CDK8/CycC): > 10 µM | IC50 (CDK5/p35NCK): 4.79 µM | IC50 (CDK1/CycA2): > 10 µM
